{"source": "ChEMBL document CHEMBL1132382", "about": "(J Med Chem, 1999)", "key": {"Carbonic anhydrase 4": {"molecular_target": "T1, Carbonic anhydrase 4 (Bos taurus, UniProt Q95323)", "T1 sequence (Q95323 whole entry)": "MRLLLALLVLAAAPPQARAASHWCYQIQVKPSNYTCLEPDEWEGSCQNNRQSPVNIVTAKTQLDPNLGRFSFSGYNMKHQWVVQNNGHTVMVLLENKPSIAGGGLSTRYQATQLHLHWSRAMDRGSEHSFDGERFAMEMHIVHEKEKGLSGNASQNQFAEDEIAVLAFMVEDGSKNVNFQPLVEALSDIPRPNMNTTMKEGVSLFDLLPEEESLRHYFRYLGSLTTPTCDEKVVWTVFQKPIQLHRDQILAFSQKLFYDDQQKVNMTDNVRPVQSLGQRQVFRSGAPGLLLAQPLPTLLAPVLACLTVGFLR", "description": "Inhibitory activity against bovine carbonic anhydrase IV (CA4), isolated from bovine lung microsomes"}, "Oryctolagus cuniculus [1]": {"species_on_record": "Oryctolagus cuniculus", "assay": "The compound was evaluated for fall in intraocular pressure (IOP) of Normotensive rabbits after treatment with one drop (50 microL) of a 2% solution at 0 min (pH 7.5)", "assay_type": "functional, Eye"}, "Oryctolagus cuniculus [2]": {"species_on_record": "Oryctolagus cuniculus", "assay": "The compound was evaluated for fall in intraocular pressure (IOP) of Glaucomatous rabbits after treatment with one drop (50 microL) of a 2% solution at 30 min (pH 7.5)", "assay_type": "functional, Eye"}, "Oryctolagus cuniculus [3]": {"species_on_record": "Oryctolagus cuniculus", "assay": "The compound was evaluated for fall in intraocular pressure (IOP) of Glaucomatous rabbits after treatment with one drop (50 microL) of a 2% solution at 60 min (pH 7.5)", "assay_type": "functional, Eye"}, "Oryctolagus cuniculus [4]": {"species_on_record": "Oryctolagus cuniculus", "assay": "The compound was evaluated for fall in intraocular pressure (IOP) of Glaucomatous rabbits after treatment with one drop (50 microL) of a 2% solution at 90 min (pH 7.5)", "assay_type": "functional, Eye"}, "Oryctolagus cuniculus [5]": {"species_on_record": "Oryctolagus cuniculus", "assay": "The compound was evaluated for fall in intraocular pressure (IOP) of Normotensive rabbits after treatment with one drop (50 microL) of a 2% solution at 90 min (pH 7.5)", "assay_type": "functional, Eye"}, "Oryctolagus cuniculus [6]": {"species_on_record": "Oryctolagus cuniculus", "assay": "The compound was evaluated for fall in intraocular pressure (IOP) of Normotensive rabbits after treatment with one drop (50 microL) of a 2% solution at 30 min (pH 7.5)", "assay_type": "functional, Eye"}, "Oryctolagus cuniculus [7]": {"species_on_record": "Oryctolagus cuniculus", "assay": "The compound was evaluated for fall in intraocular pressure (IOP) of Normotensive rabbits after treatment with one drop (50 microL) of a 2% solution at 60 min (pH 7.5)", "assay_type": "functional, Eye"}, "Oryctolagus cuniculus [8]": {"species_on_record": "Oryctolagus cuniculus", "assay": "The compound was evaluated for fall in intraocular pressure (IOP) of Glaucomatous rabbits after treatment with one drop (50 microL) of a 2% solution at 0 min (pH 7.5)", "assay_type": "functional, Eye"}, "Carbonic anhydrase 1": {"molecular_target": "Carbonic anhydrase 1 (Homo sapiens, UniProt P00915)", "sequence (P00915 whole entry)": "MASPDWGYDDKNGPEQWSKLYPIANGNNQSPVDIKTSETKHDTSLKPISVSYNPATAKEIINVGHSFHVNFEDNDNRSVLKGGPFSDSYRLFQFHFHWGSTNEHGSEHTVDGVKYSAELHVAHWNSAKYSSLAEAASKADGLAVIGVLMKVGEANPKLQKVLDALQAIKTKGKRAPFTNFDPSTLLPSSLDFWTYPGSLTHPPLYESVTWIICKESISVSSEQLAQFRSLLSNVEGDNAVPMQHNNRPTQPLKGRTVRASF", "description": "Inhibitory activity against human recombinant carbonic anhydrase I (CA1)"}, "[9]": {"assay": "not given", "remark": "listed apart in the source"}, "[10]": {"details": "octanol/water", "description": "Partition coefficient (logD) (chloroform/buffer)"}, "physchem": {"assay": "physchem", "details": "buffer, pH 7.4"}, "Oryctolagus cuniculus [11]": {"species_on_record": "Oryctolagus cuniculus", "assay": "The compound was evaluated for fall in intraocular pressure (IOP) of Normotensive rabbits after treatment with one drop (50 microL) of a 2% solution at 30 min (pH 5.5)", "assay_type": "functional, Eye"}, "Oryctolagus cuniculus [12]": {"species_on_record": "Oryctolagus cuniculus", "assay": "The compound was evaluated for fall in intraocular pressure (IOP) of Normotensive rabbits after treatment with one drop (50 microL) of a 2% solution at 0 min (pH 5.5)", "assay_type": "functional, Eye"}, "Oryctolagus cuniculus [13]": {"species_on_record": "Oryctolagus cuniculus", "assay": "The compound was evaluated for fall in intraocular pressure (IOP) of Glaucomatous rabbits after treatment with one drop (50 microL) of a 2% solution at 30 min (pH 6.0)", "assay_type": "functional, Eye"}, "Oryctolagus cuniculus [14]": {"species_on_record": "Oryctolagus cuniculus", "assay": "The compound was evaluated for fall in intraocular pressure (IOP) of Glaucomatous rabbits after treatment with one drop (50 microL) of a 2% solution at 60 min (pH 6.0)", "assay_type": "functional, Eye"}, "Oryctolagus cuniculus [15]": {"species_on_record": "Oryctolagus cuniculus", "assay": "The compound was evaluated for fall in intraocular pressure (IOP) of Glaucomatous rabbits after treatment with one drop (50 microL) of a 2% solution at 90 min (pH 6.0)", "assay_type": "functional, Eye"}, "Oryctolagus cuniculus [16]": {"species_on_record": "Oryctolagus cuniculus", "assay": "The compound was evaluated for fall in intraocular pressure (IOP) of Normotensive rabbits after treatment with one drop (50 microL) of a 2% solution at 60 min (pH 5.5)", "assay_type": "functional, Eye"}, "Oryctolagus cuniculus [17]": {"species_on_record": "Oryctolagus cuniculus", "assay": "The compound was evaluated for fall in intraocular pressure (IOP) of Normotensive rabbits after treatment with one drop (50 microL) of a 2% solution at 90 min (pH 5.5)", "assay_type": "functional, Eye"}, "Oryctolagus cuniculus [18]": {"species_on_record": "Oryctolagus cuniculus", "assay": "The compound was evaluated for fall in intraocular pressure (IOP) of Glaucomatous rabbits after treatment with one drop (50 microL) of a 2% solution at 0 min (pH 6.0)", "assay_type": "functional, Eye"}}, "data": [{"smiles": "NCC(=O)NCC(=O)Nc1ccc(S(=O)(=O)Nc2nnc(S(N)(=O)=O)s2)cc1", "values": [{"measurement": "Ki", "setting": "Carbonic anhydrase 4", "value": 6, "unit": "nM"}, {"measurement": "Change in IOP", "setting": "Oryctolagus cuniculus [1]", "value": 0, "unit": "mmHg"}, {"measurement": "Change in IOP", "setting": "Oryctolagus cuniculus [2]", "value": 7, "unit": "mmHg"}, {"measurement": "Change in IOP", "setting": "Oryctolagus cuniculus [3]", "value": 11.8, "unit": "mmHg"}, {"measurement": "Change in IOP", "setting": "Oryctolagus cuniculus [4]", "value": 13.1, "unit": "mmHg"}, {"measurement": "Change in IOP", "setting": "Oryctolagus cuniculus [5]", "value": 9.1, "unit": "mmHg"}, {"measurement": "Change in IOP", "setting": "Oryctolagus cuniculus [6]", "value": 5.9, "unit": "mmHg"}, {"measurement": "Change in IOP", "setting": "Oryctolagus cuniculus [7]", "value": 8.8, "unit": "mmHg"}, {"measurement": "Change in IOP", "setting": "Oryctolagus cuniculus [8]", "value": 0, "unit": "mmHg"}, {"measurement": "Ki", "setting": "Carbonic anhydrase 1", "value": 13, "unit": "nM"}, {"measurement": "kin", "value": 2, "unit": "h⁻¹"}, {"measurement": "kin", "setting": "[9]", "value": 5, "unit": "h⁻¹"}, {"measurement": "logD", "setting": "[10]", "value": 0.754}, {"measurement": "solubility", "setting": "physchem", "value": 51, "unit": "mM"}]}, {"smiles": "NCC(=O)Nc1ccc(S(=O)(=O)Nc2nnc(S(N)(=O)=O)s2)cc1", "values": [{"measurement": "Ki", "setting": "Carbonic anhydrase 4", "value": 9, "unit": "nM"}, {"measurement": "Change in IOP", "setting": "Oryctolagus cuniculus [11]", "value": 5.9, "unit": "mmHg"}, {"measurement": "Change in IOP", "setting": "Oryctolagus cuniculus [12]", "value": 0, "unit": "mmHg"}, {"measurement": "Change in IOP", "setting": "Oryctolagus cuniculus [13]", "value": 7.9, "unit": "mmHg"}, {"measurement": "Change in IOP", "setting": "Oryctolagus cuniculus [14]", "value": 12.5, "unit": "mmHg"}, {"measurement": "Change in IOP", "setting": "Oryctolagus cuniculus [15]", "value": 14, "unit": "mmHg"}, {"measurement": "Change in IOP", "setting": "Oryctolagus cuniculus [16]", "value": 9.5, "unit": "mmHg"}, {"measurement": "Change in IOP", "setting": "Oryctolagus cuniculus [17]", "value": 9, "unit": "mmHg"}, {"measurement": "Change in IOP", "setting": "Oryctolagus cuniculus [18]", "value": 0, "unit": "mmHg"}, {"measurement": "Ki", "setting": "Carbonic anhydrase 1", "value": 14, "unit": "nM"}, {"measurement": "kin", "value": 3.1, "unit": "h⁻¹"}, {"measurement": "kin", "setting": "[9]", "value": 5.4, "unit": "h⁻¹"}, {"measurement": "logD", "setting": "[10]", "value": 0.043}, {"measurement": "solubility", "setting": "physchem", "value": 65, "unit": "mM"}]}]}
